{
  "source": "patent US6506938B1",
  "about": "“Process for the purifying of iopamidol” (Bracco International B.V., priority 1993, dated 2003)",
  "origin": "cited, not measured here",
  "key": {"[1]": {"settings": "Boll. Chim. Farm., 120, 639, (1981)"}, "[2]": {"settings": "British patent no. 1,472,050"}},
  "note": "Like-named read-outs stand apart in the source and are kept apart here.",
  "data": [
    {"smiles": "C[C@H](O)C(=O)Nc1c(I)c(C(=O)NC(CO)CO)c(I)c(C(=O)NC(CO)CO)c1I", "note": "[Iopamidol, L-5-α-hydroxypropionylamino-2,4,6-triiodo-isophthalic acid bis-(1,3-dihydroxyisopropylamide)]", "values": [
      {"measurement": "solubility in benzene", "setting": "[1]; benzene", "value": "practically insoluble"},
      {"measurement": "solubility in chloroform", "setting": "[1]; chloroform", "value": "practically insoluble"},
      {"measurement": "solubility in diethylether", "setting": "[1]; diethylether", "value": "practically insoluble"},
      {"measurement": "solubility in ethanol", "setting": "[1]; ethanol", "value": "practically insoluble"},
      {"measurement": "solubility in methanol", "setting": "[1]; methanol", "value": "only slightly soluble"},
      {"measurement": "solubility in water", "setting": "[1]; water", "value": "very soluble"},
      {"measurement": "solubility in ethanol", "setting": "[2]; ethanol, room temperature", "value": "about 10%"},
      {"measurement": "solubility in methanol", "setting": "[2]; methanol", "value": "practically unlimited solubility"},
      {"measurement": "solubility in water", "setting": "[2]; water", "value": "dissolves very easily"}
    ]}
  ]
}
